Earlier results, collected in patent US20100204159A1, “ORGANIC COMPOUNDS AND THEIR USES” (priority 2006, published 2010).

Tested on: HCV
Settings: ribavirin alone; Davis, Gastroenterology 118:S104-S114, 2000

NC(=O)c1ncn([C@@H]2O[C@H](CO)[C@@H](O)[C@H]2O)n1 [Ribavirin, 1-β-D-ribofuranosyl-1-1,2,4-triazole-3-caroxamide]
effect on serum levels of HCV-RNA: does not lower serum levels of HCV-RNA
patients in whom serum amino transferase levels are reduced to normal: 40 % of patients
